Source: patent publication US5635593A (priority 1995, dated 1997)
Peptide text beside a SMILES is read from it.

What was measured:
[1] = system: blood pressure responses to BK; format: in vivo; conditions: anaesthetized rat, dose response curve n=10
BK2 receptor [2] = biological target: T1, BK2 receptor (Cavia porcellus, UniProt O70526); assay: guinea-pig ileum (GPI) in vitro, antagonism of BK
T1 construct: tested for activity on guinea pig ileum in vitro on the standard tissue bath/strain gauge system; from tissue; host or cells: guinea pig ileum
T1 sequence (O70526 1-372): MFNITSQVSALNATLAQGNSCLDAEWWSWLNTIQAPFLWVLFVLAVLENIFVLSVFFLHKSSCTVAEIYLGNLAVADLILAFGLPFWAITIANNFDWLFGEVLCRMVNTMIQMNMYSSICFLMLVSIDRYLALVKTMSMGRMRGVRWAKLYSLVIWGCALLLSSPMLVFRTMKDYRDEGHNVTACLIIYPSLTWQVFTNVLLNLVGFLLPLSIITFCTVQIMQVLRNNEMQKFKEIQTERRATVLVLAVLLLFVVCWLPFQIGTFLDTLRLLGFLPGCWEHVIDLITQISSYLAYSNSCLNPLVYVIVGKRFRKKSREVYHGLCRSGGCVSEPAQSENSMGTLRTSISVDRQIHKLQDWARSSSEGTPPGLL
Protocol: (§1) Thus, in vitro studies were performed on standard assay systems, namely, guinea-pig ileum (GPI), rat uterus (RU) and rabbit jugular vein (RJV). […] The potency of each compound was assessed as a pA2 value according to the method of Arunlakshana & Schild, Br. J. Pharmacol. Chemother., 14:48-58 (1959). The pA2 can be defined as the negative logarithm of the molar concentration of the antagonist in the presence of which the potency of the agonist is reduced two-fold, i.e., twice the amount of agonist is required to produce a given response in the presence of, than in the absence of, the antagonist. A high potency of antagonism is indicated by a high pA2 value. i.e., a low concentration of antagonist is effective.
The percentage recovery (% Rec) was also determined for compounds with respect to each assay.
The Cys-modified monomers and the resultant dimers were tested for activity on guinea pig ileum in vitro on the standard tissue bath/strain gauge system as before.

BK2 -receptor = biological target: T2, BK2 -receptor (Rattus norvegicus, UniProt P25023); assay: rat uterus (RU) in vitro, antagonism of BK; conditions: percentage recovery after washing
T2 construct: guinea-pig ileum (GPI), rat uterus (RU) and rabbit jugular vein (RJV); from tissue; host or cells: rat uterus
T2 sequence (P25023 1-396): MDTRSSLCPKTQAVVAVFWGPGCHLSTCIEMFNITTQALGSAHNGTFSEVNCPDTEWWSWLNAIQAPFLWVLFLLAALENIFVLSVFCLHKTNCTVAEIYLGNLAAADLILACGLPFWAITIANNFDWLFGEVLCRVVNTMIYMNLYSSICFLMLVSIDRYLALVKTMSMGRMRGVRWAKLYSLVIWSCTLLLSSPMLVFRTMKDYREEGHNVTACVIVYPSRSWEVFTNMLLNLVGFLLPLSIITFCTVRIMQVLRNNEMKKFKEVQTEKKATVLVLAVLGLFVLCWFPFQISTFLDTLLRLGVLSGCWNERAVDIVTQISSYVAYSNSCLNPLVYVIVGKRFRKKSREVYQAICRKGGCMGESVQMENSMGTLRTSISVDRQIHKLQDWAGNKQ

BK2 receptor [3] = biological target: T3, BK2 receptor (Oryctolagus cuniculus, UniProt Q28642); assay: rabbit jugular vein (RJV) in vitro, antagonism of BK; conditions: percentage recovery after washing
T3 construct: from tissue; host or cells: whole animal (rabbit, LPS-pretreated), blood pressure response
T3 sequence (Q28642 1-367): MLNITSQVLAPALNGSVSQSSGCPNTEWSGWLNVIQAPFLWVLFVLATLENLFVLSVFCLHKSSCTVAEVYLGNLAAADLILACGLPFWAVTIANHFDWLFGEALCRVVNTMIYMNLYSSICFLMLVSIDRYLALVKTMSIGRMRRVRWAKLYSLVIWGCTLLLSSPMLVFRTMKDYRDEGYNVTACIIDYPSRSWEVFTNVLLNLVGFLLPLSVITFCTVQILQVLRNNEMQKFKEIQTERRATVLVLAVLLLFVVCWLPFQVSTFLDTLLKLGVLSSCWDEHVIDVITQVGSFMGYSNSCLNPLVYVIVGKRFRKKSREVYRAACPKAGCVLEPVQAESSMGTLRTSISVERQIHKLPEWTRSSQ
Protocol: as §1
The percentage recovery (% Rec) was also determined for compounds with respect to each assay. Percentage recovery is a measure of the duration of action, the lower the percentage recovery value, the greater the duration of action of the compound.

SMILES	ED50 of BK, blood pressure [1] [nmol]	pA2 guinea pig ileum (BK2 receptor [2]; against BK)	% REC GPI (BK2 receptor [2]; percentage recovery after washing) [%]	% REC rat uterus (BK2 -receptor) [%]	% REC RJV (BK2 receptor [3]) [%]	Kb (BK2 receptor [2]; against BK, read-out: pA2 guinea pig ileum (converted)) [nM]
NC(N)=NCCC[C@H](NC(=O)[C@H](Cc1ccccc1)NC(=O)[C@@H]1CCCN1C(=O)[C@H](CO)NC(=O)[C@H](Cc1ccccc1)NC(=O)CNC(=O)[C@@H]1CCCN1C(=O)[C@@H]1CCCN1C(=O)[C@@H](N)CCCN=C(N)N)C(=O)O [BK, Arg^1 -Pro^2 -Pro^3 -Gly^4 -Phe^5 -Ser^6 -Pro^7 -Phe^8 -Arg^9] (H-RPPGFSPFR-OH)	0.4	–	–	–	–	–
CC(C)C[C@H](NC(=O)[C@@H](Cc1ccccc1)NC(=O)[C@H](CSC1CC(=O)N(CCCCCCN2C(=O)CC(SC[C@H](NC(=O)[C@H](Cc3ccccc3)NC(=O)CNC(=O)[C@@H]3C[C@@H](O)CN3C(=O)[C@@H]3CCCN3C(=O)[C@H](CCCNC(=N)N)NC(=O)[C@H](N)CCCNC(=N)N)C(=O)N[C@H](Cc3ccccc3)C(=O)N[C@@H](CC(C)C)C(=O)N[C@@H](CCCNC(=N)N)C(=O)O)C2=O)C1=O)NC(=O)[C@H](Cc1ccccc1)NC(=O)CNC(=O)[C@@H]1C[C@@H](O)CN1C(=O)[C@@H]1CCCN1C(=O)[C@H](CCCNC(=N)N)NC(=O)[C@H](N)CCCNC(=N)N)C(=O)N[C@@H](CCCNC(=N)N)C(=O)O (stereo partly shown) [CP-0127] (HELM PEPTIDE1{[dR].R.P.[Hyp].G.F.C.[dF].L.R}|PEPTIDE2{[dR].R.P.[Hyp].G.F.C.[dF].L.R}|CHEM1{[O=C1CC([*:1])C(=O)N1CCCCCCN1C(=O)CC([*:2])C1=O]}$PEPTIDE1,CHEM1,7:R3-1:R1|PEPTIDE2,CHEM1,7:R3-1:R2$$$V2.0)	–	7.7	100	50	10	–
CC(C)C[C@H](NC(=O)[C@@H](Cc1ccccc1)NC(=O)[C@H](CO)NC(=O)[C@H](Cc1ccccc1)NC(=O)CNC(=O)[C@@H]1C[C@@H](O)CN1C(=O)[C@@H]1CCCN1C(=O)[C@H](CCCNC(=N)N)NC(=O)[C@H](N)CSC1CC(=O)N(CCCCCCN2C(=O)CC(SC[C@@H](N)C(=O)N[C@@H](CCCNC(=N)N)C(=O)N3CCC[C@H]3C(=O)N3C[C@H](O)C[C@H]3C(=O)NCC(=O)N[C@@H](Cc3ccccc3)C(=O)N[C@@H](CO)C(=O)N[C@H](Cc3ccccc3)C(=O)N[C@@H](CC(C)C)C(=O)N[C@@H](CCCNC(=N)N)C(=O)O)C2=O)C1=O)C(=O)N[C@@H](CCCNC(=N)N)C(=O)O (stereo partly shown) [CP-0161] (HELM PEPTIDE1{[dC].R.P.[Hyp].G.F.S.[dF].L.R}|PEPTIDE2{[dC].R.P.[Hyp].G.F.S.[dF].L.R}|CHEM1{[O=C1CC([*:1])C(=O)N1CCCCCCN1C(=O)CC([*:2])C1=O]}$PEPTIDE1,CHEM1,1:R3-1:R1|PEPTIDE2,CHEM1,1:R3-1:R2$$$V2.0)	–	–	–	100	–	316
